Key:
ras proteins = assay: Methylation of immunoprecipitated ras proteins in intact ras-transformed rat1 cells; format: cell-based, rat; settings: 100 μM, FIG. 4
Text: HEC1A, rail, ras-transformed rail and B16F10 melanoma cells were also used for metabolic labelling of endogenous proteins with 100-300 μCi/ml [methyl-^3H]methionine which was also indicative of PPMTase activity. Metabolic labelling procedures were as detailed elsewhere (Hakiai et al., supra. (1991); Lenner et al., supra. (1992)), and immunoprecipitation of ras with Y13-159 Ab were as detailed by Clarke et al. (Proc. Natl. Acad. Sci. USA, 85, 4643-4647 (1988)).
While the above Table II determines the PPMTase activity by assaying the methylation of a synthetic substrate, FIG. 3 determines this activity by methylation of various endogenous ras-like prenylated GTP-binding proteins present in intact HEC1A, ras-transformed rat1 and melanoma cells, with and without 100 μM of FTA or FTS. […] Use of [α-P^32]

[1] = system: HEC1A, rat1 and ras-transformed rat1 cells; assay: In vitro toxicity: MTT and trypan blue staining; format: cell-based; settings: human (HEC1A), rat (rat1, ras-transformed rat1), 50 μM
Text: Cells were counted following 3, 7 and 10 days of beginning of treatments with drugs. For counting, cells were detached from plates with trypsin/EDTA, and collected by a low speed spin in the presence of DMEM/10% FCS. The pelleted cells were resuspended in a small volume of DMEM/10% FCS and counted under the microscope. Viability of cells was estimated by staining with (3-(4,5-dimethylthiosol-2-yl)-2,5-diphenyltetrazolium bromide (MTT) and microscopic examination of the stained and unstained cells, or spectrophotometric estimation (OD490, 590) of the total stain in each well. Non viable cells were estimated by the trypan blue exclusion method.
In order to determine the long term effects of both FTA and FTS on cell survival, a colorometric method using MTT, which stains only live cells, was employed (Mosmen, F. J. Immunol. Meth., 65, 55-63 (1983), and tryptan blue exclusion staining in which only dead cells are stained, were employed. Cells were incubated with 50 μM of either FTA or FTS for a period of up to 5 days in culture. This concentration is 10-30 times the Ki values of FTS and FTA as calculated above. As control served cells incubated in 0.1% DMSO with no drug.

in vivo = settings: Bulb-C, mouse, in vivo, ip
Description: (§1) Seven groups of five mice were used. The mice received a single i.p. dose of FTS in DMSO or the solvent only. Doses used in this experiment ranged from 0.5 mg/kg to 268 mg/kg.

Bulb-C mice = assay: in vivo
Description: as §1

[2] = system: Ha-ras-transformed rat1 cells; assay: Transformed phenotype (multi-layered clumps) of ras-transformed rat1 cells; format: cell-based, rat; settings: 5 days
Text: The two compounds had no effect on the morphology of the non-transformed cells. (FIG. 9B and 9C).

HEC1A cells = assay: Transformed phenotype (multi-layered clumps) of HEC1A cells; format: cell-based, human
Text: HEC1A cells also grow in multi-layered clumps (FIG. 10A).

[3] = system: Erb-B2 transformed 3T3 cells (RB-22); assay: Growth of Erb-B2 transformed cells; format: cell-based; settings: 25 μM
Text: (§2) The cell lines employed were rat1, -EJ, which are rat1 cells stably expressing Val- 12 activated human Ha-ras gene (Land H. et al., Nature, 304, 596-602, (1983)); V-raf-3T3, which are 3T3 cells stably expressing the V-raf gene (Xu, N., et al., Proc. Natl. Acad. Sci., 90, 6741-6745); RB-22, which are 3T3 cells stably expressing the rat Erb-B2 gene (Peles, et al., EMBO J., 10, 2077-2086 (1991)) CO6O cells (SV40-CHO), which are CHE cells stably expressing the SV-40 T-antigen gene (Lavi, Proc. Natl. Acad. Sci., 78, 6144-6148 (1981)); human endometrial carcinoma cell line HEC1A, which are cells that express activated K-ras (Enomoto T., Cancer Res., 50, 6139-6145; mouse B16F10 melanoma cells, rat pheochromocytoma PC12 cells, […] cells CHE and COS cells.
(§3) HEC1A, V-raf-3T3 and SV40-CHE cells were grown in Dulbecco's modified Eagle medium (DMEM) containing 10% fetal calf serum (FCS), 4 mM L-glutamine, 10 μg/ml streptomycin and 10 U/ml penicillin. Rat1 and -EJ cells were grown in the same medium except that it was supplemented with 12.5 U/ml nyostatin. RB-22 cells were grown in modified DMEM (1 mM sodium pyruvate, 20 mM sodium bicarbonate)/10% FCS containing 4 mM L-glutamine, […] streptomycin, 10 U/ml penicillin. […]
(§4) The potent PPMTase inhibitor FTS was used to examine selectivity of the drugs towards ras-dependent growth-signaling pathways. […] Cells were counted on day 5 of the experiment.

[4] = system: SV-40 T-antigen transformed CHO cells; assay: Growth of T-antigen transformed cells; format: cell-based; settings: 25 μM
Text: as §2, §3, §4

[5] = system: Rat1 cells stimulated with EGF or bFGF; assay: Mitogenic effect of EGF and bFGF in Rat1 cells; format: cell-based, rat; settings: 25 μM; for Number of cells (% of control): day 5
Description: The potent […] inhibitor FTS was used to examine selectivity of the drugs towards ras-dependent growth-signaling pathways. In these experiments cells transformed by Erb-B2, that acts upstream of ras in the ras pathway, and cells transformed by V-raf or by T-antigen, that act independently of ras, were studied. The cells were placed at a density of 2×10^3 cells/well and received on the day of plating either solvent (controls) or 25 μM FTS. Cells were counted on day 5 of the experiment. […] At this concentration, however, no effects of FTS on the growth of V-tar transformed or of T-antigen-transformed cells were observed. The results in Table VI also indicate that the mitogenic effect of bFGF and EGF in Rat1 cells is inhibited by FTS.

C57 black mice = settings: mouse, in vivo
Description: Toxicity tests in intact animals were performed with C57 black and with bulb-C mice.
Four groups, each comprising 9 mice, were used. Animals of group one received 100 μl s.c. injections of 150 μM FTS in salient solution containing 1% DMSO (0.21 mg drug/kg body weight). The drug was injected every 3 days for 2 weeks. Group two, which served as controls, received the solvent/saline solution for the same period of time.

With `CC(C)=CCC/C(C)=C/CC/C(C)=C/CSc1ccccc1C(=O)O` [FTS, (3,7,11-trimethyl-dodeca-2,6,10-trienyl)-2-thiobenzoic acid] the “inhibition of methylation of ras proteins” value (ras proteins) was “inhibits”, the “cells stained with trypan blue (dead)” value [1] was “less than 5%” and the LD50 at 3 weeks (in vivo) was greater than 100 mg/kg. For the same compound, the “Number of live mice (3 weeks following injection)” value (shortened to “Number of live mice”) (Bulb-C mice; 0.5 mg/kg single i.p.) was 5/5, the “Number of live mice” value (Bulb-C mice; 5.0 mg/kg single i.p.) was 5/5 and the “Number of live mice” value (Bulb-C mice; 10.0 mg/kg single i.p.) was 5/5. The survival (Bulb-C mice; 50 mg/kg or lower single i.p.) was “all mice survived”, the “Number of live mice” value (Bulb-C mice; 50.0 mg/kg single i.p.) was 5/5 and the “mice out of 5 died” value (Bulb-C mice; 134 mg/kg single i.p.) was 2. For the same compound, the “Number of live mice” value (Bulb-C mice; 134.0 mg/kg single i.p.) was 3/5, the “Number of live mice” value (Bulb-C mice; 268.0 mg/kg single i.p.) was 0/5 and the mortality (Bulb-C mice; highest dose (268 mg/kg) single i.p.) was “all mice died”. The “effect on transformed phenotype” value ([2]; 5 μM, FIG. 9E) was “reversed the transformed phenotype”, the “effect on transformed phenotype” value ([2]; 10 μM, FIG. 9F) was “reversed the transformed phenotype” and the “effect on multi-layered clumps formation” value (HEC1A cells; 10 μM, FIG. 10B) was “significant reversal of the multi-layered clumps formation”. The “effect on multi-layered clumps formation” value (HEC1A cells; 50 μM, FIG. 10C) was “significant reversal of the multi-layered clumps formation”, the “effect on growth of Erb-B2-transformed cells” value [3] was “sufficient to inhibit growth” and the “Number of cells (% of control)” value ([3]; Brb-B2 transformed 3T3, day 5) was 36 % of control. The “effect on growth of T-antigen-transformed cells” value [4] was “no effects”, the “Number of cells (% of control)” value ([4]; Y-antigen transformed CHO, day 5) was 99 ± 9 % of control and the “effect on the mitogenic effect of bFGF and EGF in Rat1 cells” value [5] was “inhibited”. The “Number of cells (% of control)” value ([5]; Ras1 + 10 mg/ml ECP) was 40 ± 5 % of control, the “Number of cells (% of control)” value ([5]; Ras1 + 50 mg/ml bPCP) was 42 ± 3 % of control and the “toxicity to C57 mice” value (C57 black mice) was “not toxic”.
